Here are results for six molecules from patent publication US8669256B2, “Substituted thieno[2,3-b]pyrazine compounds as modulators of B-Raf kinase activity” (Merck Sharp & Dohme B.V., priority 2010, dated 2014).

Where two headings read alike, the source gives them in different places.

The test system of test [1] is phosphorylation of ERK1/2 in A375 cells containing mutant B-Raf (V600E). In words: Phospho-ERK FACE assay in A375 (B-Raf mutated) melanoma cell line. It is filed as cell-based. As to conditions: Homo sapiens, A-375, A375 cells, 2 hours incubation, read-out: IC50, A375 melanoma phospho-ERK assay. Summed up:
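A375 cells (B-Raf V600E), serum-starved overnight in 0.1% FBS, exposed to compounds for 2 hours at 37° C (1% DMSO). Fixed cells probed with anti-phospho-ERK1/2 (Thr202/Tyr204, Thr185/Tyr187) antibody overnight at 4° C, total ERK on a separate plate. HRP-secondary chemiluminescence read-out.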

The target in test [2] is T1, GST-tagged human recombinant active B-Raf (Δ1-415) (Homo sapiens, UniProt P15056).
T1 construct: GST; purchased Upstate/Millipore
T1 sequence (P15056 416-766, stated change not applied): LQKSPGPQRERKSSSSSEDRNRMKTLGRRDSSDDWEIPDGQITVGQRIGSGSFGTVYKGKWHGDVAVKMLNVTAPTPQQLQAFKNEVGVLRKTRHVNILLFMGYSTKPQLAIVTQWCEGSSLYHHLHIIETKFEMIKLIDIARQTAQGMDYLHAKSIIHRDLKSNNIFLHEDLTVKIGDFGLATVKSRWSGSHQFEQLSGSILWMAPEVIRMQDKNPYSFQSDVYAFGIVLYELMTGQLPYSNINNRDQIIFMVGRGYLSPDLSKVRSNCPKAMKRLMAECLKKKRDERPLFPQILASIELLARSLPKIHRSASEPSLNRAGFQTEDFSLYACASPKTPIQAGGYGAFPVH
The experiment in a line: B-Raf kinase activity, IMAP coupled assay (B-Raf/MEK1/ERK2, fluorescence polarization). It is filed as biochemical. As to conditions: bounds also given as pIC50 (>6, >7, >8); 60 min pre-incubation with compound, ATP 50 μM; read-out: IC50, B-Raf IMAP assay. In short, it runs like this: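 Coupled cascade: GST-B-Raf (Δ1-415; 0.2 U/ml) pre-incubated with compound (1% DMSO) 60 min at room temperature, then unactive MEK1 (64 ng/ml), unactive ERK2 (600 ng/ml), 50 nM fluorescein-Erktide and 50 μM ATP added for 60 min at 30 °C, pH 7.2 Tris buffer. Phosphopeptide captured on IMAP beads (60 min); fluorescence polarization read.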

Where [3] appears, read: between 1 μM and 100 nM (6<pIC50<7).

`Cc1ccc(NC(=O)c2cccc(C(C)(C)C#N)c2)cc1NC(=O)c1cc2ncc(NCCO)nc2s1` [Example 66, N-(5-(3-(2-cyanopropan-2-yl)benzamido)-2-methylphenyl)-3-(2-hydroxyethylamino)thieno[2,3-b]pyrazine-6-carboxamide]: the IC50 (as a rule, the concentration needed to halve the response being measured) is 1000 to 10000 nM in test [1] (class between 10 μM and 1 μM (5<pIC50<6)); below 10 nM in test [2].
As to `CCNc1cnc2cc(C(=O)Nc3cc(NC(=O)c4cccc(C(C)(C)C#N)c4)ccc3C)sc2n1` [Example 67, N-(5-(3-(2-cyanopropan-2-yl)benzamido)-2-methylphenyl)-3-(ethylamino)thieno[2,3-b]pyrazine-6-carboxamide], the figures for the IC50 in test [1] (setting [3]) and in test [2] were 100 to 1000 nM and below 100 nM, respectively.
On the same counts, the results for `Cc1ccc(NC(=O)c2cccc(C(C)(C)C#N)c2)cc1NC(=O)c1cc2ncc(-c3cccnc3)nc2s1` [Example 68, N-(5-(3-(2-cyanopropan-2-yl)benzamido)-2-methylphenyl)-3-(pyridin-3-yl)thieno[2,3-b]pyrazine-6-carboxamide] are 100 to 1000 nM and below 100 nM.
Consider `Cc1ccc(NC(=O)c2cccc(C(C)(C)C#N)c2)cc1NC(=O)c1cc2ncc(-c3ccncc3)nc2s1` [Example 69, N-(5-(3-(2-cyanopropan-2-yl)benzamido)-2-methylphenyl)-3-(pyridin-4-yl)thieno[2,3-b]pyrazine-6-carboxamide], for which the values for the IC50 in test [1] (class given as below 100 nM (pIC50>7)) and in test [2] were below 100 nM and below 10 nM, respectively.
Regarding `Cc1cnc2cc(C(=O)Nc3cc(NC(=O)c4cccc(C(C)(C)C#N)c4)ccc3C)sc2n1` [Example 70, N-(5-(3-(2-cyanopropan-2-yl)benzamido)-2-methylphenyl)-3-methylthieno[2,3-b]pyrazine-6-carboxamide], the IC50 in test [1] (setting [3]) is 100 to 1000 nM; in test [2], below 100 nM.
For `Cc1ccc(NC(=O)c2cccc(C(C)(C)C#N)c2)cc1C(=O)Nc1cc2nccnc2s1` [Example 73, 5-(3-(2-cyanopropan-2-yl)benzamido)-2-methyl-N-(thieno[2,3-b]pyrazin-6-yl)benzamide], the IC50 in test [1] (setting [3]) is 100 to 1000 nM; in test [2], below 100 nM.
